{"source": "ChEMBL document CHEMBL3396973", "about": "“Synthesis and biological evaluation of new pyrazol-4-ylpyrimidine derivatives as potential ROS1 kinase inhibitors” (Eur J Med Chem, 2015)", "key": {"[1]": {"target": "T1, Hepatocyte growth factor receptor (Homo sapiens, UniProt P08581)", "T1 sequence (P08581 whole entry)": "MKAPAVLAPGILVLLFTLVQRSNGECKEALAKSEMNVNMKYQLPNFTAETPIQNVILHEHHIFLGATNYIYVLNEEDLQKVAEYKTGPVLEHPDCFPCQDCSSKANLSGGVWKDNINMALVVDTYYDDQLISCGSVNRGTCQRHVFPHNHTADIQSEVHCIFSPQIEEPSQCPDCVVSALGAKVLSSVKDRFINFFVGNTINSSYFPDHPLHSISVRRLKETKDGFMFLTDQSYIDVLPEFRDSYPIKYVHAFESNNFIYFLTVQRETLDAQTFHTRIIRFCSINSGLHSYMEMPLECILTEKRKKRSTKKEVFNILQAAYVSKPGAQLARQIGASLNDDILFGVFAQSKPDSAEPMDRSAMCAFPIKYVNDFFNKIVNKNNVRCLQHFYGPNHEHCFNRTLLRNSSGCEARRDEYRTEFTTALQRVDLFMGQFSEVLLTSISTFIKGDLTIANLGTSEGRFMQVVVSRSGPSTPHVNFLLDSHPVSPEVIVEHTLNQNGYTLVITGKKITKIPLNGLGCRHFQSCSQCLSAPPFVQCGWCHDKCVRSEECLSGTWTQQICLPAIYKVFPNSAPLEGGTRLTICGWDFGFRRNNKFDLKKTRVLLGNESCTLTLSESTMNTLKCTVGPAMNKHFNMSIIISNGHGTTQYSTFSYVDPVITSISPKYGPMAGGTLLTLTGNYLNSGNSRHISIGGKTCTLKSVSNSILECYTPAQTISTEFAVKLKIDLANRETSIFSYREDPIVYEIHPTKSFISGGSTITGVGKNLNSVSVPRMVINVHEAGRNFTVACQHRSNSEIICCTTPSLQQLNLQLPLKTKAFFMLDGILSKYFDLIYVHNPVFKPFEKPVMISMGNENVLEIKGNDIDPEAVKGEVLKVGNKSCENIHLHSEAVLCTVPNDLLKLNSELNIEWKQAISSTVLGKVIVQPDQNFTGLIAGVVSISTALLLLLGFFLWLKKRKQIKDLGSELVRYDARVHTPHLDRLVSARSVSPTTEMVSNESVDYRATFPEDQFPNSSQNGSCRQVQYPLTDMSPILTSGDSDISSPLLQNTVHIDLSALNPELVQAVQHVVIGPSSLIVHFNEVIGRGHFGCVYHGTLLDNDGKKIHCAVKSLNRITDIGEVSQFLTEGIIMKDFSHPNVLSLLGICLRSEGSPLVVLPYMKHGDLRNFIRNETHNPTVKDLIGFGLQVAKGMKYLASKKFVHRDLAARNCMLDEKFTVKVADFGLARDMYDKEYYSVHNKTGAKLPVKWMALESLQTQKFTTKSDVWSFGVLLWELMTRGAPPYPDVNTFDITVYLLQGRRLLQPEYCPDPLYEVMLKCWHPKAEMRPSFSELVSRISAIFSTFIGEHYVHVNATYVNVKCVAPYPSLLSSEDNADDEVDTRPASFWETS"}, "[2]": {"target": "T2, Proto-oncogene tyrosine-protein kinase ROS (Homo sapiens, UniProt P08922)", "T2 sequence (P08922 whole entry)": "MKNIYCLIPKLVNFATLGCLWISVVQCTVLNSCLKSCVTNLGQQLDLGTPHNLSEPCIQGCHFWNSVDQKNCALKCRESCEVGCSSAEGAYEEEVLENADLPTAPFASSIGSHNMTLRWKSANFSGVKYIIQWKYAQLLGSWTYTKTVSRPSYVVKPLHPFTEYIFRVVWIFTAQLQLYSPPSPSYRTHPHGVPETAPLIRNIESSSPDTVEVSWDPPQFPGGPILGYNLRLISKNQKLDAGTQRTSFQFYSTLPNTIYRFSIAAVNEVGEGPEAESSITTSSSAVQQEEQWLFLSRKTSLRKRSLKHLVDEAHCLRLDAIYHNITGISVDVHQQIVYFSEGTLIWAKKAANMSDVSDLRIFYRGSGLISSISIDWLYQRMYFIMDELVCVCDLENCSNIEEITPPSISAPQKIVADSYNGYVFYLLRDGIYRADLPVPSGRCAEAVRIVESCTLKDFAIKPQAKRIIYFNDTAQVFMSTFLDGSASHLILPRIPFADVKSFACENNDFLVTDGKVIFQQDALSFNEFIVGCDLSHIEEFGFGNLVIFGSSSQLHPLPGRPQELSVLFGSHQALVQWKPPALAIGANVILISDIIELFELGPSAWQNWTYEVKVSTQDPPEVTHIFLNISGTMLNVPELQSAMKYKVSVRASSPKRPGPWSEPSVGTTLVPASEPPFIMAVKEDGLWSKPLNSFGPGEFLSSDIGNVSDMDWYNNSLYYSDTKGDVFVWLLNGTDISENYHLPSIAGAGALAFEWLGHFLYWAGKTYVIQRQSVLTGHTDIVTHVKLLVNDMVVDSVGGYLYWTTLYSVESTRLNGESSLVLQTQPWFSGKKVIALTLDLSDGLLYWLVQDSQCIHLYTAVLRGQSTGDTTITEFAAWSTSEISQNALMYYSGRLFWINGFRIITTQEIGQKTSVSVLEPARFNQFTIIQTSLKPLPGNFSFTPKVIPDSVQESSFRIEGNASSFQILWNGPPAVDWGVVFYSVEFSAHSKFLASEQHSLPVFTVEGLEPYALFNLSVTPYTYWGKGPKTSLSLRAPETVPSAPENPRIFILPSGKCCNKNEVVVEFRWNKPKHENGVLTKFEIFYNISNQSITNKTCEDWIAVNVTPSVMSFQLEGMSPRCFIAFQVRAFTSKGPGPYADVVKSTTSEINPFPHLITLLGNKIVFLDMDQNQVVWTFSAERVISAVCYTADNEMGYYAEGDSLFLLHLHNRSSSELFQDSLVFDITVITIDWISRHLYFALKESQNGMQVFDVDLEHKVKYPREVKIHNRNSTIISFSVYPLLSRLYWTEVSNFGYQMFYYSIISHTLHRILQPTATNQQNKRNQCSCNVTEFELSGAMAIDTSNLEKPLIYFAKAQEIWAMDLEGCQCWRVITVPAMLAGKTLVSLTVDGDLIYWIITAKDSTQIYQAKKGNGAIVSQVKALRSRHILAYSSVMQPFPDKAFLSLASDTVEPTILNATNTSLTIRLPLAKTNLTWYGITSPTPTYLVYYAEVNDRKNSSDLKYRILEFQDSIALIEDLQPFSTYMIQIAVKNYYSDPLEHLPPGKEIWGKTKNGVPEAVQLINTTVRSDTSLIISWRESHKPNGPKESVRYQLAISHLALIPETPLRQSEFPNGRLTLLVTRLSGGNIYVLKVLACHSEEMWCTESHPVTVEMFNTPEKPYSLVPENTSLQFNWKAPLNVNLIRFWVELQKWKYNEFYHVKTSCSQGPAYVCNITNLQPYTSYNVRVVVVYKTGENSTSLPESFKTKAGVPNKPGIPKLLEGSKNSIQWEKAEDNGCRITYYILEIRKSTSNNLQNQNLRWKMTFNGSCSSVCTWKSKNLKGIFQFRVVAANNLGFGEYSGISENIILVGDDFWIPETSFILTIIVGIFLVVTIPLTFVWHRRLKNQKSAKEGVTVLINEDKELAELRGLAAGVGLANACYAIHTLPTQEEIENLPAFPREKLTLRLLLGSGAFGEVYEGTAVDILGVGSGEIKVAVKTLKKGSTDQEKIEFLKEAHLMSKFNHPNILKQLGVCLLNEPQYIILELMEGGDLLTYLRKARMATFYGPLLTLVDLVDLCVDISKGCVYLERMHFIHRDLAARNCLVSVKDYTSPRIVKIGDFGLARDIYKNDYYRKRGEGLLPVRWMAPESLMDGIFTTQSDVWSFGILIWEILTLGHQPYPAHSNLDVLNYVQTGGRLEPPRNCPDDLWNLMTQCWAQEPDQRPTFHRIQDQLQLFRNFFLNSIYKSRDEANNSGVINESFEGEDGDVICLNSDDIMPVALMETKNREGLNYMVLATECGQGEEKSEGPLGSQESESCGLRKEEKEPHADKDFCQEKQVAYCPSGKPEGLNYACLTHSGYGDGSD"}, "[3]": {"target": "T2, Proto-oncogene tyrosine-protein kinase ROS", "remark": "listed apart in the source"}, "[4]": {"target": "T2, Proto-oncogene tyrosine-protein kinase ROS", "remark": "listed apart in the source"}, "[5]": {"target": "T2, Proto-oncogene tyrosine-protein kinase ROS", "assay": "Inhibition of ROS1 (unknown origin) by HotSpot assay; call rule not given here"}, "[6]": {"target": "T1, Hepatocyte growth factor receptor", "remark": "listed apart in the source"}, "[7]": {"target": "ALK tyrosine kinase receptor (Homo sapiens, UniProt Q9UM73)"}}}
{"smiles": "COc1cc(C)cc(-c2nn(CC#N)cc2-c2cc(NCC(C)C)nc(-c3cccnc3)n2)c1", "values": [{"measurement": "IC50", "setting": "[1]", "value": "Not Active"}, {"measurement": "IC50", "setting": "[2]", "value": 920, "unit": "nM"}]}
{"smiles": "COc1cc(C)cc(-c2nn(CC#N)cc2-c2cc(NCCCO)nc(-c3cccnc3)n2)c1", "values": [{"measurement": "IC50", "setting": "[1]", "value": "Not Active"}, {"measurement": "IC50", "setting": "[2]", "value": 119, "unit": "nM"}]}
{"smiles": "COc1cc(C)cc(-c2nn(CC#N)cc2-c2cc(NCCCCO)nc(-c3cccnc3)n2)c1", "values": [{"measurement": "IC50", "setting": "[1]", "value": "Not Active"}, {"measurement": "IC50", "setting": "[2]", "value": 56, "unit": "nM"}]}
{"smiles": "COc1cc(C)cc(-c2nn(CC#N)cc2-c2cc(NCCN3CCOCC3)nc(-c3cccnc3)n2)c1", "values": [{"measurement": "IC50", "setting": "[1]", "value": "Not Active"}, {"measurement": "IC50", "setting": "[2]", "value": 148, "unit": "nM"}]}
{"smiles": "COc1cc(C)cc(-c2nn(CC#N)cc2-c2cc(NCCCN3CCOCC3)nc(-c3cccnc3)n2)c1", "values": [{"measurement": "IC50", "setting": "[1]", "value": "Not Active"}, {"measurement": "IC50", "setting": "[2]", "value": 88, "unit": "nM"}]}
{"smiles": "Cc1cc(O)cc(-c2nn(CC#N)cc2-c2cc(NCC(C)C)nc(-c3cccnc3)n2)c1", "values": [{"measurement": "IC50", "setting": "[1]", "value": "Not Active"}, {"measurement": "IC50", "setting": "[2]", "value": 780, "unit": "nM"}]}
{"smiles": "Cc1cc(O)cc(-c2nn(CC#N)cc2-c2cc(NCCCO)nc(-c3cccnc3)n2)c1", "values": [{"measurement": "IC50", "setting": "[1]", "value": "Not Active"}, {"measurement": "IC50", "setting": "[2]", "value": 108, "unit": "nM"}]}
{"smiles": "Cc1cc(O)cc(-c2nn(CC#N)cc2-c2cc(NCCCCO)nc(-c3cccnc3)n2)c1", "values": [{"measurement": "IC50", "setting": "[1]", "value": "Not Active"}, {"measurement": "IC50", "setting": "[2]", "value": 24, "unit": "nM"}]}
{"smiles": "Cc1cc(O)cc(-c2nn(CC#N)cc2-c2cc(NCCN3CCOCC3)nc(-c3cccnc3)n2)c1", "values": [{"measurement": "IC50", "setting": "[1]", "value": "Not Active"}, {"measurement": "IC50", "setting": "[2]", "value": 478, "unit": "nM"}]}
{"smiles": "Cc1cc(O)cc(-c2nn(CC#N)cc2-c2cc(NCCCN3CCOCC3)nc(-c3cccnc3)n2)c1", "values": [{"measurement": "IC50", "setting": "[1]", "value": "Not Active"}, {"measurement": "IC50", "setting": "[2]", "value": 183, "unit": "nM"}]}
{"smiles": "COCCCNc1cc(-c2cnc(C)nc2-c2ccc(F)cc2Cl)nc(-c2cccnc2)n1", "values": [{"measurement": "IC50", "setting": "[2]", "value": 1330, "unit": "nM"}]}
{"smiles": "COCCCNc1cc(-c2cnc(C)nc2-c2ccc(Cl)cc2Cl)nc(-c2cccnc2)n1", "values": [{"measurement": "IC50", "setting": "[2]", "value": 357, "unit": "nM"}]}
{"smiles": "COCCCNc1cc(-c2cnc(C)nc2-c2ccc(F)cc2Cl)nc(-c2ccccc2)n1", "values": [{"measurement": "IC50", "setting": "[3]", "value": "Not Active"}]}
{"smiles": "COCCCNc1cc(-c2cnc(C)nc2-c2ccc(Cl)cc2Cl)nc(-c2ccccc2)n1", "values": [{"measurement": "IC50", "setting": "[3]", "value": "Not Active"}]}
{"smiles": "Cc1ncc(-c2ccnc(-c3cccnc3)c2)c(-c2ccc(F)cc2Cl)n1", "values": [{"measurement": "IC50", "setting": "[2]", "value": 570, "unit": "nM"}]}
{"smiles": "Cc1ncc(-c2ccnc(-c3cccnc3)c2)c(-c2ccc(Cl)cc2Cl)n1", "values": [{"measurement": "IC50", "setting": "[2]", "value": 330, "unit": "nM"}]}
{"smiles": "COc1cc(N2CCC(N(C)C)CC2)ccc1Nc1ncc(Cl)c(Nc2ccccc2P(C)(C)=O)n1", "values": [{"measurement": "IC50", "setting": "[4]", "value": 1.9, "unit": "nM"}]}
{"smiles": "COc1ccc(-c2cc(-c3c[nH]nc3-c3cc(C)cc(OC)c3)ccn2)cc1", "values": [{"measurement": "IC50", "setting": "[5]", "value": 1250, "unit": "nM"}]}
{"smiles": "COc1cc(C)cc(-c2c(-c3ccnc(-c4ccc(NC(C)=O)cc4)c3)cnn2CC#N)c1", "values": [{"measurement": "IC50", "setting": "[5]", "value": 6250, "unit": "nM"}]}
{"smiles": "Cc1cc(O)cc(-c2nn(CC#N)cc2-c2cc(NC[C@H](C)O)nc(-c3cccnc3)n2)c1", "values": [{"measurement": "IC50", "setting": "[6]", "value": 11, "unit": "nM"}, {"measurement": "IC50", "setting": "[7]", "value": 0.6, "unit": "nM"}, {"measurement": "IC50", "setting": "[2]", "value": 1.7, "unit": "nM"}]}
